# Results published in article PMC6100724, “Proteome‐wide analysis of phospho‐regulated PDZ domain interactions” (Molecular Systems Biology, 2018).
# Experiments:
# Scribble PDZ1 [1] = target: T1, Scribble PDZ1 (Homo sapiens, UniProt Q14160); experiment: Pre-phosphorylation ProP-PD: wild-type library treated with RPS6KA1 or not, selection with NGS; type: binding; details: mean of the two selections, bait Scribble PDZ1; for Phosphorylated selection Mean fraction: Pre-phosphorylation with RPS6KA1; for Unphosphorylated selection Mean fraction: Without Kinase
# T1 construct: human Scribble PDZ1 aa 719–829 in; made in house; host or cells: E. coli BL21 Gold (DE3)
# T1 sequence (Q14160 719-829): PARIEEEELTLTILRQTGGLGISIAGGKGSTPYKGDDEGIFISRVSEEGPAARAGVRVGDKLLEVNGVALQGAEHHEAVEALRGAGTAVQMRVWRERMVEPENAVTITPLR
# Method: For pre‐phosphorylation of the wild‐type ProP‐PD library, we obtained activated RPS6KA1 (Thermo Fisher). The time and amount of kinase required to phosphorylate the ProP‐PD library were tested in a phosphorylation assay.
# (§1) Phage selections were carried out for four rounds following a protocol by Huang and Sidhu (Huang & Sidhu, 2011) with minor modifications. Non‐specific binding phage was removed by pre‐selections against immobilized GST throughout the selection. The selections against the (pre‐)phosphorylated wild‐type library were performed in 50 mM HEPES (pH 7.4) and 150 mM NaCl (HBS) following the same procedure after pre‐phosphorylation of the library.
# (§2) • Immobilize proteins (15 μg in 100 μl PBS) in a 96‐well MaxiSorp microtiter plate (NUNC) overnight at 4°C. • Start a 2YT culture of E. coli Omnimax supplemented with 100 μg/ml tetracycline to retain the F pilus epitope. • Block the wells with 200 μl 0.5% BSA in PBS for 2 h at 4°C. • Precipitate naïve phage library (10^11 cfu per selection) or amplified phage pool from the previous round of selection by adding one‐fifth the volume of PEG/NaCl. • Incubate on ice for 10 min, and pellet precipitated phage by centrifugation at 5,300 g for 15 min. Resuspend the phage pellet in 100 μl PBS per selection. • Add 100 μl of phage solution to the GST‐coated pre‐selection wells and incubate for 1 h. • Transfer the phage solution to the immobilized target proteins and allow it to bind for 2 h at 8°C. • Wash the plate four times with 200 μl cold wash buffer (PBS, 0.05% Tween‐20). • Elute bound phage by incubation with 100 μl log phase (0.6–0.8 OD600) E. coli Omnimax for 30 min at 37°C with shaking (200 RPM). • Add 10^12 cfu/ml M13K07 helper phage for hyperinfection of the bacteria and incubate as above for 45 min. • Transfer the bacterial culture to 10 ml 2YT supplemented with 50 μg/ml carbenicillin, 25 μg/ml kanamycin, and 300 μM IPTG and incubate overnight at 37°C while shaking. • Perform phage pool ELISA to monitor the progress of the selection as described previously (Huang & Sidhu, 2011).
# • Precipitate the naive wild‐type phage library (as described above, 1.8 × 10^10 cfu phage per selection). • Resuspend the precipitated phage pellets in 100 μl Kinase buffer per selection and add ATP (100 μM final concentration) and RPS6KA1 (500 ng/ml) to the phage solution. In parallel, prepare a negative control where only ATP is added to the phage pool. • Incubate the phosphorylation reaction for 2 h at room temperature. Stop the reaction through PEG/NaCl precipitation (as described above). • Resuspend the phage pool in 100 μl HBS.
# During the 4 days of pre‐phosphorylation ProP‐PD selections, the input phage library of each day of selection was subjected to phosphorylation prior to phage selection.
# (§3) The naïve library and the enriched phage pools of the third day of selection were amplified and barcoded by PCR and analyzed by NGS as described elsewhere (McLaughlin & Sidhu, 2013; Ivarsson et al, 2014). The reads were demultiplexed using the barcode sequences and filtered by discarding sequences with a Phred quality score under 30. Sequences were mapped to the original library using Bowtie (Langmead et al, 2009) with two mismatches between reads and library sequence. Nucleotide mutations leading to amino acid substitutions were subsequently removed. Cutoff values of NGS counts were assigned for each pool. PWMs were generated based on the remaining peptides (aligned on the C‐termini) using WebLogo (Crooks et al, 2004).
# DLG1 PDZ2 = target: T2, DLG1 PDZ2 (Homo sapiens, UniProt Q12959); experiment: Phosphomimetic ProP-PD selection with NGS; type: binding; details: mean of selections 1-3, bait DLG1 PDZ2
# T2 construct: human DLG1 PDZ2 aa 311–407 in a modified pRSET vector 40; made in house; host or cells: E. coli BL21 Gold (DE3)
# T2 sequence (Q12959 311-407): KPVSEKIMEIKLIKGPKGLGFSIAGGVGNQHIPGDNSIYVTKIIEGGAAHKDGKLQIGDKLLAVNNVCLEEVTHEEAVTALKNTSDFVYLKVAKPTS
# Method: as §1, §2, §3
# (§4) However, there was no significant correlation of the actual read counts (selection “strength”) and the initial representation in the library, reflecting the strong selection during phage display (wt+mimetic: P‐value: 0.49, ρ = −0.08, mimetic only: P‐value: 0.069, ρ = −0.2, wt only: P‐value: 0.12, ρ = 0.17). Consequently, the amount of reads for each binder after phage display is not a function of the amount of input reads in the naïve library and no modeling based on the input library frequencies to score the interactions is necessary. To allow for comparison between replicate selections, we used the fraction of NGS reads within a certain set, instead of the absolute number of NGS reads, as the absolute numbers differ between different NGS batches.
# DLG1 PDZ3 = experiment: Phosphomimetic ProP-PD selection with NGS; type: binding, human; details: mean of selections 1-3; bait DLG1 PDZ3
# Method: as §1, §2, §3, §4
# Scribble PDZ3 = experiment: Phosphomimetic ProP-PD selection with NGS; type: binding, human; details: mean over selections 1-3; bait Scribble PDZ3
# Method: as §1, §2, §3, §4
# DLG1 PDZ1 = experiment: Phosphomimetic ProP-PD selection with NGS; type: binding, human; details: mean of selections 1-3, bait DLG1 PDZ1; for Mean fraction #NGS counts mimetic peptide / total count selection: phosphomimetic peptide; for Mean fraction #NGS counts wt peptide / total counts selection: wild type peptide
# Method: as §1, §2, §3, §4
# Scribble PDZ1 [2] = target: T1, Scribble PDZ1; experiment: Phosphomimetic ProP-PD selection with NGS; type: binding; details: bait Scribble PDZ1; mean of selections 1-3
# Method: as §1, §2, §3, §4
# Scribble PDZ2 = experiment: Phosphomimetic ProP-PD selection with NGS; type: binding, human; details: bait Scribble PDZ2; mean of selections 1 and 2 (selection 3 empty)
# Method: as §1, §2, §3, §4
sequence,measurement,setting,value
DKESFLTWL [YAP1],Phosphorylated selection Mean fraction,Scribble PDZ1 [1],0.0002294
same,Unphosphorylated selection Mean fraction,Scribble PDZ1 [1],0.0001256
EIKLKTSFF,Mean fraction #NGS counts mimetic peptide / total count selection,DLG1 PDZ2; phosphomimetic peptide,0.002811
same,Mean fraction #NGS counts mimetic peptide / total count selection,DLG1 PDZ3,0.01375
same,Mean fraction #NGS counts mimetic peptide / total count selection,Scribble PDZ3,6.807e-5
same,Mean fraction #NGS counts mimetic peptide / total count selection,DLG1 PDZ1,0.06227
GGKRKEELV,Mean fraction #NGS counts mimetic peptide / total count selection,DLG1 PDZ2,0.0001104
same,Mean fraction #NGS counts mimetic peptide / total count selection,DLG1 PDZ3,0
same,Mean fraction #NGS counts mimetic peptide / total count selection,Scribble PDZ3,0
same,Mean fraction #NGS counts mimetic peptide / total count selection,DLG1 PDZ1,3.0718e-6
GGKRKETLV,Mean fraction #NGS counts wt peptide / total counts selection,DLG1 PDZ2,0.3203
same,Mean fraction #NGS counts wt peptide / total counts selection,DLG1 PDZ3,0.06478
same,Mean fraction #NGS counts wt peptide / total counts selection,Scribble PDZ3,6.172e-5
same,Mean fraction #NGS counts wt peptide / total counts selection,DLG1 PDZ1,0.3267
KGRAKGEPV,Mean fraction #NGS counts mimetic peptide / total count selection,DLG1 PDZ3,0
KGRAKGTPV,Mean fraction #NGS counts wt peptide / total counts selection,DLG1 PDZ3,0.0008774
KREFIESNV,Mean fraction #NGS counts mimetic peptide / total count selection,Scribble PDZ1 [2],0.0009157
same,Mean fraction #NGS counts mimetic peptide / total count selection,DLG1 PDZ2; phosphomimetic peptide,0.0001273
same,Mean fraction #NGS counts mimetic peptide / total count selection,Scribble PDZ2,0.003418
same,Mean fraction #NGS counts mimetic peptide / total count selection,Scribble PDZ3,0.005112
same,Mean fraction #NGS counts mimetic peptide / total count selection,DLG1 PDZ1,2.37e-6
KRSFIESNV,Mean fraction #NGS counts wt peptide / total counts selection,Scribble PDZ1 [2],0.03115
same,Mean fraction #NGS counts wt peptide / total counts selection,DLG1 PDZ2; wild type peptide,0.007809
same,Mean fraction #NGS counts wt peptide / total counts selection,Scribble PDZ2,0.2119
same,Mean fraction #NGS counts wt peptide / total counts selection,Scribble PDZ3,0.07707
same,Mean fraction #NGS counts wt peptide / total counts selection,DLG1 PDZ1,0.0007809
KSEPFLTWL [WWTR1],Phosphorylated selection Mean fraction,Scribble PDZ1 [1],1.399e-5
same,Unphosphorylated selection Mean fraction,Scribble PDZ1 [1],1.381e-5
LPHSPHSHL [AAAS],Phosphorylated selection Mean fraction,Scribble PDZ1 [1],6.993e-6
same,Unphosphorylated selection Mean fraction,Scribble PDZ1 [1],4.139e-6
LPKIKETTV [FRMPD4],Phosphorylated selection Mean fraction,Scribble PDZ1 [1],0.001062
same,Unphosphorylated selection Mean fraction,Scribble PDZ1 [1],0.0007483
PANRRETPV,Mean fraction #NGS counts mimetic peptide / total count selection,DLG1 PDZ3,0.0003587
same,Mean fraction #NGS counts mimetic peptide / total count selection,DLG1 PDZ1,3.546e-5
PANRRTTPV,Mean fraction #NGS counts wt peptide / total counts selection,DLG1 PDZ3,0
same,Mean fraction #NGS counts wt peptide / total counts selection,DLG1 PDZ1,0
PIHSLETSL [ATP2B2],Phosphorylated selection Mean fraction,Scribble PDZ1 [1],0.0009701
same,Unphosphorylated selection Mean fraction,Scribble PDZ1 [1],0.003212
PLHSLETSL [ATP2B1],Phosphorylated selection Mean fraction,Scribble PDZ1 [1],0.0003108
same,Unphosphorylated selection Mean fraction,Scribble PDZ1 [1],1.381e-5
RATEPGSGL,Mean fraction #NGS counts mimetic peptide / total count selection,DLG1 PDZ3,0
RATSPGSGL,Mean fraction #NGS counts wt peptide / total counts selection,DLG1 PDZ3,0.001731
RPYRREEEI,Mean fraction #NGS counts mimetic peptide / total count selection,DLG1 PDZ3,0
same,Mean fraction #NGS counts mimetic peptide / total count selection,Scribble PDZ3,0
RPYRRESEI,Mean fraction #NGS counts mimetic peptide / total count selection,DLG1 PDZ2,0
same,Mean fraction #NGS counts wt peptide / total counts selection,DLG1 PDZ2,3.461e-5
same,Mean fraction #NGS counts wt peptide / total counts selection,DLG1 PDZ3,2.154e-5
same,Mean fraction #NGS counts wt peptide / total counts selection,Scribble PDZ3,9.302e-5
RQTEYQGVL,Mean fraction #NGS counts mimetic peptide / total count selection,DLG1 PDZ2,0
same,Mean fraction #NGS counts mimetic peptide / total count selection,DLG1 PDZ3,3.59e-6
RQTSYQGVL,Mean fraction #NGS counts wt peptide / total counts selection,DLG1 PDZ2,0.001671
same,Mean fraction #NGS counts wt peptide / total counts selection,DLG1 PDZ3,0.008629
